Experimental data from ChEMBL document CHEMBL4017441, “Mitigating the inhibition of human bile salt export pump by drugs: opportunities provided by physicochemical property modulation, in silico modeling, and structural modification” (Drug Metab Dispos, 2012).

What follows are compounds tested against Bile salt export pump (Homo sapiens, UniProt O95342).
Type: ADME

SMILES	IC50 [µM]
CCCCC(=O)N(Cc1ccc(-c2ccccc2-c2nnn[nH]2)cc1)[C@H](C(=O)O)C(C)C	31.1
CNC(=O)Oc1ccc2c(c1)C1(C)CCN(C)C1N2C (configuration not stated)	> 1000
O=C(O[C@H]1C[N+]2(CCCOc3ccccc3)CCC1CC2)C(O)(c1cccs1)c1cccs1	127
O=C(CCCCC(=O)Nc1c(I)cc(I)c(C(=O)O)c1I)Nc1c(I)cc(I)c(C(=O)O)c1I	> 970
N[C@H](Cc1cc(I)c(Oc2cc(I)c(O)c(I)c2)c(I)c1)C(=O)O	< 10
CCCc1c2nc(C(=O)O)cc(C(F)(F)F)c2cc2c(=O)cc(C(=O)O)oc12	365
CCCc1c2nc(C(=O)O)cc(Cl)c2cc2c(=O)cc(C(=O)O)oc12	> 892
CCCc1c2nc(C(=O)O)cc(O)c2cc2c(=O)cc(C(=O)O)oc12	> 1000
CCCc1c2nc(C(=O)O)cc(N(C)C(C)=O)c2cc2c(=O)cc(C(=O)O)oc12	> 1000
COc1ccc2c(c1OC)C(=O)OC2C1c2cc3c(cc2CCN1C)OCO3 (configuration not stated)	65.6
CC[C@@H](C(N)=O)N1CCCC1=O	> 1000
COC1C(OC(=O)/C=C/C=C/C=C/C=C/C(=O)O)CCC2(CO2)C1C1(C)OC1CC=C(C)C (configuration not stated)	25.6
c1ccc2[nH]c(-c3nc4ccccc4[nH]3)nc2c1	31.3
CN1CCC(OC(c2ccccc2)c2ccccc2)CC1	509
C=CC1CN2CCC1CC2C(O)c1ccnc2ccccc12 (configuration not stated)	> 1000
CCOC(=O)[C@H](CCc1ccccc1)N[C@@H](C)C(=O)N1Cc2ccccc2C[C@H]1C(=O)O	15.5
CCS(=O)(=O)c1ccc(-c2cc(Cl)ccc2OCC(=O)O)c(F)c1	168
CN1CCN(c2ccccc2/C=C2/SCCN(c3ccc(Cl)c(Cl)c3)C2=O)CC1	< 10
O=C(NCC12CC3CC(CC(C3)C1)C2)c1cc(CN2CCNCC2)ccc1Cl	124
NCC1OC(OC2C(CO)OC(OC3C(O)C(N)CC(N)C3OC3OC(CN)C(O)C(O)C3N)C2O)C(N)C(O)C1O (configuration not stated)	> 1000
Cc1ccc(OC(C)(C)[C@H]2OC[C@@H](C/C=C\CCC(=O)O)[C@@H](c3cccnc3)O2)c([N+](=O)[O-])c1	< 10
CNCC(O)c1cccc(O)c1 (configuration not stated)	> 1000
C/C=C/C(=O)N(CC)c1ccccc1C	110
CO[C@H]1/C=C/O[C@@]2(C)Oc3c(C)c(O)c4c(O)c(c(/C=N/N5CCN(C)CC5)c(O)c4c3C2=O)NC(=O)/C(C)=C\C=C\[C@H](C)[C@H](O)[C@@H](C)[C@@H](O)[C@H](C)[C@H](OC(C)=O)[C@H]1C	< 10
CO[C@H]1/C=C/O[C@@]2(C)Oc3c(C)c(O)c4c(c3C2=O)C2=NC3(CCN(CC(C)C)CC3)NC2=C(NC(=O)/C(C)=C\C=C\[C@H](C)[C@H](O)[C@@H](C)[C@@H](O)[C@H](C)[C@H](OC(C)=O)[C@H]1C)C4=O	< 10

SMILES	IC50 [µM]
CN[C@]1(C)[C@H]2CC[C@H](C2)C1(C)C	> 1000
O=C(O)c1cc2cc(O)ccc2n1Cc1ccc(Cl)c(Cl)c1	49.8
COc1ccc2c(c1OC)C(=O)OC2C1c2c(cc3c(c2OC)OCO3)CCN1C (configuration not stated)	23.9
CCCCCC(C)(O)/C=C/[C@@H]1[C@@H](C/C=C\CCCC(=O)O)[C@@H](O)C[C@H]1O (some centres not stated)	329
CCc1cc(CC)c2oc(C(=O)O)cc(=O)c2c1O	112
CS(=O)(=O)Oc1ccc(OCCc2ccc(C[C@H](SCCc3ccc(O)cc3)C(=O)O)cc2)cc1	< 13.4
Cc1ccc(NC(=O)c2cccc3c2oc2ccccc23)cc1NC(=O)c1cccc(OC2CCN(C(C)C)CC2)c1	< 10
O=CN(O)C(CCCc1ncccn1)CS(=O)(=O)N1CCN(c2ccc(F)cc2)CC1 (configuration not stated)	< 16.4
Cc1cc2c(cc(C(=O)O)n2Cc2ccc(Cl)c(Cl)c2)o1	15.9
CC(=O)NC[C@H]1CN(c2ccc(C(=O)c3cnc4ccc(Cl)cn34)cc2)C(=O)O1	27.6
C[C@H](Oc1ccc(C(F)(F)F)cc1-c1ccc(S(C)(=O)=O)c(C(F)(F)F)c1)C(=O)O	35.8
COc1cc2c(Oc3ccc4[nH]c(C)cc4c3F)ncnc2cc1OCCCN1CCCCC1	22.7
COc1ccnc(-c2cccc(C)c2[S+]([O-])c2nc3ccccc3[nH]2)c1 (configuration not stated)	< 10
O=CN(O)C(CCc1ccccn1)CS(=O)(=O)N1CCN(c2ccc(Cl)cn2)CC1 (configuration not stated)	< 10
CC(=O)Nc1ccccc1OC[C@@H](O)CNC1CCN(Cc2ccc(Cl)cc2)CC1	55.6
COc1ccc(Nc2ccn(-c3ccccc3)n2)cc1	23
CC1=C(C(=O)O)N2C(=O)[C@@H](NC(=O)C(N)C3=CCC=CC3)C2SC1 (some centres not stated)	> 1000
CCC1C(=O)OCC1Cc1cncn1C (configuration not stated)	> 1000
Cc1cc(Nc2nc(NCc3cc(-c4ccccn4)no3)ncc2Cl)[nH]n1	< 10
O=CN(O)C(CCc1ncccn1)CS(=O)(=O)N1CCN(c2ccc(Cl)cn2)CC1 (configuration not stated)	< 10
COc1ccc2cc(C(C)CO)ccc2c1 (configuration not stated)	97.6 to 98
O=C(O)c1cc2scnc2n1Cc1ccc(Cl)c(Cl)c1	22.4
CC(C)(C)C(=O)CN1CC2CN(CCCNc3ccc(C#N)cc3)CC(C1)O2	514
CC(=O)Nc1ccccc1OC[C@@](C)(O)CNC1CCN(Cc2ccc(Cl)cc2)CC1	71.5
Nc1nc(NCCN2CCOCC2)nc2nc(-c3ccco3)nn12	> 1000

SMILES	IC50 [µM]
CCCCCCCC/C=C/CCCCCCCC(=O)OCC(COP(=O)(O)OCC[N+](C)(C)C)OC(=O)CCCCCCC/C=C/CCCCCCCC (configuration not stated)	< 16
CC[C@H]1OC(=O)[C@H](C)[C@H](O[C@H]2C[C@@](C)(OC)[C@@H](O)[C@H](C)O2)[C@H](C)[C@@H](O[C@@H]2O[C@H](C)C[C@H](N(C)C)[C@H]2O)[C@](C)(O)C[C@@H](C)CN(C)[C@H](C)[C@H](O)[C@]1(C)O	> 1000
O=CN(O)[C@@H](CCCc1ncccn1)CS(=O)(=O)N1CCN(c2ccc(Cl)cn2)CC1	< 10
COc1c(C(=O)O)n(Cc2ccc(Cl)c(Cl)c2)c2ccc(O)cc12	39.6
CC(=O)NC[C@H]1CN(c2cc(F)c(C3=CCN(C(=O)CO)CC3)c(F)c2)C(=O)O1	> 1000
O=CN(O)C(CCc1ccccc1)CS(=O)(=O)N1CCN(c2ccc(Cl)cn2)CC1 (configuration not stated)	< 10
C/C(=N\OC(C)(C)C(=O)O)c1csc(N)n1	> 1000
CC(=O)OCC(=O)C1(O)C(C)CC2C3CC(F)C4=CC(=O)C=CC4(C)C3C(O)CC21C (configuration not stated)	33.6
Cc1ccc(NC(=O)c2cccc(-c3ccco3)c2)cc1-n1cnc2ccc(N3CCN(C)CC3)cc2c1=O	< 10
CC(=O)NC[C@H]1CN(c2ccc(-n3cnc(Br)c3)c(F)c2)C(=O)O1	349
CN[C@H]1C(O[C@H]2C(OC3C(O)C(O)C(NC(=N)N)C(O)C3NC(=N)N)OC(C)[C@]2(O)C=O)O[C@H](CO)[C@@H](O)[C@@H]1O (some centres not stated)	> 1000
C[C@H](CC(=O)Nc1c(Cl)ccc2nc(N3CC[C@H](N)C3)ccc12)c1ccccc1	< 27
CCCc1ccc(OCC(C)O)c2c(=O)cc(C(=O)O)oc12 (configuration not stated)	271
COc1ccc2c(c1)CC[C@@H]1[C@@H]2CC[C@@]2(C)[C@H]1CC[C@@]2(O)C#N	< 10
CCCc1c(OCCCOc2ccc3c(=O)cc(CCC(=O)O)oc3c2CCC)ccc(C(C)=O)c1O	< 10
Cc1cccc(C)c1NC(=O)[C@H]1CCCCN1C	> 1000
CCCC(=O)c1cnc2c(OCC[S+](C)[O-])cccc2c1Nc1ccc(F)cc1C (configuration not stated)	< 10
CC[C@H]1OC(=O)[C@H](C)[C@H](O[C@H]2C[C@@](C)(OC)[C@@H](O)[C@H](C)O2)[C@@H](C)[C@@H](O[C@@H]2O[C@H](C)C[C@H](N(C)C)[C@H]2O)[C@@](C)(OC)C[C@@H](C)C(=O)[C@H](C)[C@H](O)[C@]1(C)O	< 12.9
O=C(O)c1cc2c(F)c(O)ccc2n1Cc1ccc(Cl)c(Cl)c1	19.3
O=C(c1ccc(-c2ccncc2)cc1)N1CCN(S(=O)(=O)c2cc3cc(Cl)ccc3[nH]2)CC1	< 10
O=CN(O)C(CCc1ccccc1)CS(=O)(=O)N1CCN(c2ccc(F)cc2)CC1 (configuration not stated)	< 10
CC(CCC(=O)O)C1CCC2C3C(=O)CC4CC(=O)CCC4(C)C3CC(=O)C12C (configuration not stated)	202
O=CN(O)C(CCCc1ncccn1)CS(=O)(=O)N1CCC(Oc2ccc(Cl)cn2)CC1 (configuration not stated)	< 10
N[C@H]1CCN(c2ccc3c(C(=O)NCC4CCCCC4)c(Cl)ccc3n2)C1	107
C[C@@](O)(C(=O)Nc1ccc(S(=O)(=O)c2ccc(NCCO)cc2)cc1Cl)C(F)(F)F	27.4

SMILES	IC50 [µM]
CC(=O)Oc1c(C)cc(Nc2ccn(-c3ccccc3)n2)cc1C	< 10
Cc1ccc(-n2c3c/c(=N\C(C)C)c(Nc4ccc(Cl)cc4)cc-3nc3ccccc32)cc1	135
CC(=O)Oc1ccc2c(c1)cc(C(=O)O)n2Cc1ccc(Cl)c(Cl)c1	55.2
CC(C)C(=O)N[C@@H](CS)C(=O)O	> 1000
C[C@H]1C[C@@](O)(c2csc(Sc3ccc4c(c3)CC(=O)N4C)c2)CCO1	< 10.9
O=C(O)c1cc2cc(O)ccc2n1Cc1ccc(Cl)c(C(F)(F)F)c1	18.5
COc1ccc(CC(N)C(=O)N[C@@H]2[C@@H](CO)OC(n3cnc4c(N(C)C)ncnc43)[C@@H]2O)cc1 (some centres not stated)	> 787
Cc1cc(CCC(=O)O)cc(C)c1-c1nc2ccc(-c3nnc(Nc4cccc(Cl)c4)o3)cc2[nH]1	< 10
O=C(NO)C(CCc1ccccc1)CS(=O)(=O)N1CCN(c2ccc(F)cc2)CC1 (configuration not stated)	< 10
Cc1nc2c3c(ccn2c1CO)CCC(c1ccccc1)O3 (configuration not stated)	< 10
Bc1ccc(S(=O)(=O)N2CCN(C(=O)N3CCN(c4cc(C)ncn4)CC3)CC2)cc1	< 10
O=CN(O)C(CCc1cccnc1)CS(=O)(=O)N1CCC(Oc2ccc(Cl)cn2)CC1 (configuration not stated)	< 10
O=C(O)c1cc2c(OCCCO)cccc2n1Cc1ccc(Cl)c(Cl)c1	< 14
O=CN(O)C(CCc1cccnc1)CS(=O)(=O)N1CCN(c2ccc(Cl)cn2)CC1 (configuration not stated)	< 10
O=C(/C=C/c1c(C(=O)O)[nH]c2cc(Cl)cc(Cl)c12)Nc1ccccc1	< 10
CCOC(N)=O	> 1000
CC(C)[C@H](O)C(=O)N[C@@H](C)C(=O)N[C@@H]1C(=O)N(C)CCc2ccccc21	472
O=C(NCCc1ccccc1Cl)c1cc(-n2ncc(=O)[nH]c2=O)ccc1Cl	34.4
COc1cccc(N2C(N)=NC(N)=NC23CCCCC3)c1	> 1000
CCCCCCCCCCCCc1ccc(S(=O)(=O)Nc2nncs2)cc1	21
N=c1nc(N2CCCCC2)cc(N)n1O	> 1000
N[C@@H](Cc1ccc(N(CCCl)CCCl)cc1)C(=O)O	93.7
